How the values were obtained:
[1] = Comparison of toxicity of polyoxometalate compounds in mice (mortality, haematology); format: in vivo; parameters: MCV (mean corpuscular volume): unit not given here; conditions: BID × 6, 60 mkd i.p.
From the text: Comparison of Toxicity of Polyoxometalate Compounds Mice.
In vivo antiviral experiments. […] Treatment was continued daily for 6 or 10 days.

[2] = tested on: Friend retrovirus, strain FV-PLS; assay: Splenomegaly model in BALB/c mice infected with Friend virus; conditions: for % Effectiveness / Mean Spleen wt. (mg) ± SD: sacrifice day 16
Description: Tests were conducted in whole infected mice using one of the compounds to the present invention. The methodology of this test is the same as was used in Ruprecht et al, Nature 323, 467-469, except that Friend virus was used instead of Rauscher virus.
Comparison of Toxicity of Polyoxometalate Compounds Mice. Female BALB/c mice (3 to 4 weeks old), obtained from Charles River Laboratories (Raleigh, N.C.), were acclimatized in the animal facility for two weeks. They-were then inoculated (200 μl) into the peritoneal cavity with Friend retrovirus, strain FV-PLS. A virus inoculum [about 100 focus forming units (FFU)/mouse] was selected which caused a splenomegaly rate of 100% on day 16 after virus inoculation in untreated animals. The virus titer of the inoculum was determined by a UV/XC assay.
In vivo antiviral experiments. Mice were inoculated intraperitoneally with virus at noon and then randomized into ten animals per treatment group. Five hours after virus inoculation, the mice were treated intraperitoneally with the compounds. Treatment was continued daily for 6 or 10 days. On day 16 after virus inoculation, the animals were sacrificed by carbon dioxide inhalation and their spleens removed under aseptic conditions and weighed.

Row | Molecule | Hct (hematocrit) ([1]; bled on day 17) [%] | Hgb (hemaglobin) ([1]; bled on day 17) [g/dL] | MCH ([1]; bled on day 17) [pg] | MCHC (mean corpuscular hemoglobin concentration) ([1]; bled on day 17) [g/dL] | MCV (mean corpuscular volume) ([1]; bled on day 17) | PLT (platelates) (×1000) ([1]; bled on day 17) | RBC (×1000000) ([1]; bled on day 17) | RDW (width of red cells) ([1]; bled on day 17) [%] | WBC (×1000) ([1]; bled on day 17) | Mortality ([1]; dead/total) | % Mortality ([2]; 30 mkd IP QD × 10) [%] | % Effectiveness ([2]; 30 mkd IP QD × 10) [%] | Mean Spleen wt. (mg) ± SD ([2]; 30 mkd IP QD × 10) | % Mortality ([2]; 60 mkd IP QD × 10) [%] | % Effectiveness ([2]; 60 mkd IP QD × 10) [%] | Mean Spleen wt. (mg) ± SD ([2]; 60 mkd IP QD × 10) [mg]
1 | (ArgH^+)m(H^+)4-mST, where m=1-4 [(ARGH^+)nH^+(4−n)ST] | 18.16 ± 6.02 | 7.08 ± 2.51 | 17.8 ± 1.6 | 38.62 ± 3.49 | 46.08 ± 0.45 | 325 ×1000 | 3.95 ± 1.31 ×1000000 | 36.68 ± 1.31 | 6.28 ± 2.19 ×1000 | 0/5 | – | – | – | – | – | –
2 | Cc1cn([C@H]2C[C@H](N=[N+]=[N-])[C@@H](CO)O2)c(=O)[nH]c1=O [Formula 22, 3′-azido-3′-deoxythymidine, reference compound] | – | – | – | – | – | – | – | – | – | – | 0 | 38.4 | 1,249 ± 1,152 mg | 0 | 51.3 | 988 ± 836

From patent US6911470B1, “Polyoxometalate compounds as antiviral agents” (priority 1988, dated 2005)
